Assay results reported in US4269857A, “Control of plant-virus diseases” (Kureha Kagaku Kogyo Kabushiki Kaisha, priority 1978, dated 1981).
Like-named read-outs stand apart in the source and are kept apart here.

What was measured:
[1] = system: tobacco mosaic virus (TMV); experiment: Inhibition of local lesion formation by TMV, half-leaf method on kidney bean primary leaves; assay type: in vivo, tobacco mosaic virus on kidney bean plants (variety: Otebo); conditions: for inhibition at 500 ppm: Tobacco mosaic virus, read-out: Evaluation (rate of inhibition of lesion spot formation)
Excerpt: In the experiments one of the compounds of the present invention was formulated as in the above-mentioned Example 3 and after diluting the formulated composition with water to a predetermined concentration.
In this test, the inhibiting action of the compound of the present invention against the formation of local lesion due to the infection of tobacco mosaic virus (TMV) was examined by the half-leaf method using primary leaves of kedny been plants (variety: Otebo). TMV was inoculated on the primary leaf of kedney been plant, and just after the inoculation, the diluted liquid of the compound was painted on the half surface of the leaf and water was painted on the other half surface of the leaf. The concentration of the compounds of the present invention in the liquid was 500 ppm, and the inoculum was adjusted to form about 50 topical lesion spots on the half surface of the leaf painted with water (control). Ten leaves were usually used for the evaluation of one compound, and the rate of inhibition of lesion spot formation was derived from the following formula: [formula]
The thus obtained rates of inhibition were evaluated according to the following criteria: […]

[2] = system: cucumber mosaic virus (CMV); experiment: Inhibition of CMV disease transmitted by aphids (Myzus persicae) on cucumber plants; assay type: in vivo; conditions: CMV via wingless aphids, 500 ppm, sprayed before aphid transmigration, one week after spray
Excerpt: The followings are the test results of the compounds of the present invention in the plant virus disease-controlling experiments. In the experiments one of the compounds of the present invention was formulated as in the above-mentioned Example 3 and after diluting the formulated composition with water to a predetermined concentration.
The compounds evaluated as A in Test results 2 were further tested as follows:
The cucumber plants growing for two weeks after sowing in greenhouse were sprayed by each liquid containing each compound at a concentration of 500 ppm (variety of cucumber: Kinseisanto). After drying at room temperature about 3 hours, wingless aphids (Myzus persicae, Sulzer) which had been put on the suffered cucumber plant from CMV and shipped the plant sap containing CMV were transmigrated to the sprayed cucumber plants at a rate of 5 insects per plant. On the next day of the transmigration, the insects were killed by spraying dichlorvos in the plants. After one week of the spray of the compound of the present invention, the effectiveness of the compound in inhibiting the occurrence of the sign of disease due to the virus was investigated as the number of plants without the sign of disease per number of plants sprayed. As the control, water was sprayed.

[3] = TMV, kidney bean primary leaves, 500 ppm, painted just after inoculation, half-leaf method

Compound | inhibition at 500 ppm [1, 3] [%] | Evaluation (rate of inhibition of lesion spot formation) [1, 3] | further results
CCCCNC[C@H](O)[C@@H](O)[C@H](O)[C@H](O)CO [Compound 3] |  |  | inhibition at 500 ppm [1]: 70 to 90%
CCCCCNC[C@H](O)[C@@H](O)[C@H](O)[C@H](O)CO [Compound 5] | 70 to 90 |  | 
CCCCCCNC[C@H](O)[C@@H](O)[C@H](O)[C@H](O)CO [Compound 7] | 70 to 90 |  | 
CCCCCCCCNC[C@H](O)[C@@H](O)[C@H](O)[C@H](O)CO [Compound 8] | 70 to 90 |  | 
CCCCCCCCCCNC[C@H](O)[C@@H](O)[C@H](O)[C@H](O)CO [Compound 10] | 90 to 100 |  | Evaluation (number of plants without the sign of disease per number of plants sprayed) [2]: B (7/10-5/10)
CCCCCCCCCCCCNC[C@H](O)[C@@H](O)[C@H](O)[C@H](O)CO [Compound 12] | 90 to 100 |  | Evaluation (number of plants without the sign of disease per number of plants sprayed) [2]: A (10/10-8/10)
CCCCCCCCCCCCNC[C@H](O)[C@@H](O)[C@H](O)[C@H](O)CO [Compound 13] |  | A (100-90) | Evaluation (number of plants without the sign of disease per number of plants sprayed) [2]: A (10/10-8/10)
CCCCCCCCCCCCNC[C@H](O)[C@@H](O)[C@H](O)[C@H](O)CO [Compound 14] |  | A (100-90) | Evaluation (number of plants without the sign of disease per number of plants sprayed) [2]: B (7/10-5/10)
CCCCCCCCCCCCNC[C@H](O)[C@@H](O)[C@H](O)[C@H](O)CO [Compound 15] |  | A (100-90) | Evaluation (number of plants without the sign of disease per number of plants sprayed) [2]: A (10/10-8/10)
CCCCCCCCCCCCNC[C@H](O)[C@@H](O)[C@H](O)[C@H](O)CO [Compound 16] |  | A (100-90) | Evaluation (number of plants without the sign of disease per number of plants sprayed) [2]: A (10/10-8/10)
CCCCCCCCCCCCNC[C@H](O)[C@@H](O)[C@H](O)[C@H](O)CO [Compound 17] |  | B (90-70) | 
CCCCCCCCCCCCCCNC[C@H](O)[C@@H](O)[C@H](O)[C@H](O)CO [Compound 18] | 70 to 90 |  | 
CCCCCCCCCCCCCCCNC[C@H](O)[C@@H](O)[C@H](O)[C@H](O)CO [Compound 20] | 70 to 90 |  | 
CCCCCCCCCCCCCCCCNC[C@H](O)[C@@H](O)[C@H](O)[C@H](O)CO [Compound 23] | 70 to 90 |  | 
CCCCCCCCCCCCCCCCCCNC[C@H](O)[C@@H](O)[C@H](O)[C@H](O)CO [Compound 24, 1-deoxy-1-n-octadecylamino-D-glucitol] | 90 to 100 |  | Evaluation (number of plants without the sign of disease per number of plants sprayed) [2]: A (10/10-8/10)
CCCCCCCCCCNC[C@@H](O)[C@@H](O)[C@H](O)[C@H](O)CO [Compound 26] | 90 to 100 |  | Evaluation (number of plants without the sign of disease per number of plants sprayed) [2]: B (7/10-5/10)
CCCCCCCCCCNC[C@@H](O)[C@@H](O)[C@H](O)[C@H](O)CO [Compound 27] |  |  | Evaluation (number of plants without the sign of disease per number of plants sprayed) [2]: B (7/10-5/10)
CCCCCCCCCCCCNC[C@@H](O)[C@@H](O)[C@H](O)[C@H](O)CO [Compound 28] | 90 to 100 |  | 
CCCCCCCCCCCCNC[C@@H](O)[C@@H](O)[C@H](O)[C@H](O)CO.Cl [Compound 29, 1-deoxy-1-n-dodecylamino-D-mannitol hydrochloride] |  | A (100-90) | Evaluation (number of plants without the sign of disease per number of plants sprayed) [2]: B (7/10-5/10)
CCCCCCCCCCCCNC[C@@H](O)[C@@H](O)[C@H](O)[C@H](O)CO [Compound 30] |  | B (90-70) | 
CCCCCCCCCCCCNC[C@@H](O)[C@@H](O)[C@H](O)[C@H](O)CO [Compound 31] |  | A (100-90) | 
CCCCCCCCCCCCNC[C@@H](O)[C@@H](O)[C@H](O)[C@H](O)CO [Compound 32] |  | A (100-90) | 
CCCCCCCCCCCCCCNC[C@@H](O)[C@@H](O)[C@H](O)[C@H](O)CO [Compound 33] | 70 to 90 |  | 
CCCCCCCCCCCCNC[C@H](O)[C@@H](O)[C@@H](O)[C@H](O)CO [Compound 35] | 70 to 90 |  | 

Compound | inhibition at 500 ppm [1, 3] [%] | Evaluation (rate of inhibition of lesion spot formation) [1, 3] | further results
CCCCCCCCCCCCNC[C@H](O)[C@@H](O)[C@@H](O)[C@H](O)CO [Compound 36] |  | B (90-70) | 
CCCCCCCCCCCCNC[C@H](O)[C@@H](O)[C@@H](O)[C@H](O)CO [Compound 37] |  | B (90-70) | 
CCCCCCCCCCCCNC[C@H](O)[C@H](O)[C@@H](O)[C@H](C)O [Compound 38] | 70 to 90 |  | 
CCCCCCCCCCCCNCC[C@@H](O)[C@H](O)[C@H](O)CO [Compound 41] | 90 to 100 |  | 
CCCCCCCCCCCCNCC[C@@H](O)[C@H](O)[C@H](O)CO [Compound 42] |  | B (90-70) | 
CCCCCCCCCCNC[C@H](O)[C@H](O)[C@H](O)CO [Compound 43] | 90 to 100 |  | 
CCCCCCCCCCCCNC[C@H](O)[C@H](O)[C@H](O)CO [Compound 44] |  | B (90-70) | 
CCCCCCCCCCCCNC[C@H](O)[C@H](O)[C@H](O)CO [Compound 45] | 70 to 90 |  | 
CCCCCCCCCCCCNC[C@H](O)[C@H](O)[C@H](O)CO [Compound 46] |  | A (100-90) | 
CCCCCCCCCCCCNC[C@H](O)[C@H](O)[C@H](O)CO [Compound 47] |  | A (100-90) | 
CCCCCCCCCCCCNC[C@H](O)[C@H](O)[C@H](O)CO [Compound 48] |  | A (100-90) | Evaluation (number of plants without the sign of disease per number of plants sprayed) [2]: A (10/10-8/10)
CCCCCCCCCCCCCCNC[C@H](O)[C@H](O)[C@H](O)CO [Compound 49] | 90 to 100 |  | Evaluation (number of plants without the sign of disease per number of plants sprayed) [2]: A (10/10-8/10)
CCCCCCCCCCNC[C@H](O)[C@@H](O)[C@H](O)CO [Compound 50] | 70 to 90 |  | 
CCCCCCCCCCNC[C@H](O)[C@@H](O)[C@H](O)CO [Compound 51] |  | A (100-90) | 
CCCCCCCCCCCCNC[C@H](O)[C@@H](O)[C@H](O)CO [Compound 52] | 90 to 100 |  | Evaluation (number of plants without the sign of disease per number of plants sprayed) [2]: A (10/10-8/10)
CCCCCCCCCCCCCCNC[C@H](O)[C@@H](O)[C@H](O)CO [Compound 53] | 90 to 100 |  | Evaluation (number of plants without the sign of disease per number of plants sprayed) [2]: A (10/10-8/10)
CCCCCCCCCCCCCCNC[C@H](O)[C@@H](O)[C@H](O)CO [Compound 54] |  | A (100-90) | 
CCCCCCCCCCCCCCCCCCNC[C@H](O)[C@@H](O)[C@H](O[C@H]1O[C@H](CO)[C@@H](O)[C@H](O)[C@H]1O)[C@H](O)CO [Compound 56] | 90 to 100 |  | 
CCCCCCCCCCCCCCCCCCNC[C@H](O)[C@@H](O)[C@H](O[C@H]1O[C@H](CO)[C@@H](O)[C@H](O)[C@H]1O)[C@H](O)CO [Compound 57] |  | B (90-70) | 
CCCCCCCCCCCCCCCCCCNC[C@H](O)[C@@H](O)[C@H](O[C@@H]1O[C@H](CO)[C@H](O)[C@H](O)[C@H]1O)[C@H](O)CO [Compound 59] | 90 to 100 |  | 
CCCCCCCCCCCCCCCCCCNC[C@H](O)[C@@H](O)[C@H](O[C@@H]1O[C@H](CO)[C@H](O)[C@H](O)[C@H]1O)[C@H](O)CO [Compound 60] |  | B (90-70) | 
CCCCCCCCCCCCCCCCCCNC[C@H](O)[C@@H](O)[C@H](O[C@@H]1O[C@H](CO)[C@@H](O)[C@H](O)[C@H]1O)[C@H](O)CO [Compound 62] | 70 to 90 |  | 
CCCCCCCCCCCCCCCCCCNC[C@H](O)[C@@H](O)[C@H](O[C@@H]1O[C@H](CO)[C@@H](O)[C@H](O)[C@H]1O)[C@H](O)CO [Compound 63] |  | B (90-70) | 
